The record followed here is US20060135483A1, “Oxygen/nitrogen heterocycle inhibitors of tyrosine phosphatases” (priority 2004, published 2006).

Each structure is given as a SMILES string. Where only a bound is given, the exact number is not on record here.

Test system in one data set: not given
Assay: not given
Conditions: not given
As to `CS(=O)(=O)c1ccc(-c2cnc(N(Cc3ccc(C(F)(F)P(=O)(O)O)c(Cl)c3)c3ccc(Cl)c(Cl)c3)o2)cc1` [Example 31, {[2-Chloro-4-({(3,4-dichloro-phenyl)-[5-(4-methanesulfonyl-phenyl)-oxazol-2-yl]-amino}-methyl)-phenyl]-difluoro-methyl}-phosphonic acid], the melting point is 141 to 143 °C.

The target in the next data set is T1, PTP-1B (Homo sapiens, UniProt P18031).
T1 construct: PTP-1B (purified, 1 mg/mL) as a 1:250 dilution
T1 sequence (P18031 1-321 limits assumed): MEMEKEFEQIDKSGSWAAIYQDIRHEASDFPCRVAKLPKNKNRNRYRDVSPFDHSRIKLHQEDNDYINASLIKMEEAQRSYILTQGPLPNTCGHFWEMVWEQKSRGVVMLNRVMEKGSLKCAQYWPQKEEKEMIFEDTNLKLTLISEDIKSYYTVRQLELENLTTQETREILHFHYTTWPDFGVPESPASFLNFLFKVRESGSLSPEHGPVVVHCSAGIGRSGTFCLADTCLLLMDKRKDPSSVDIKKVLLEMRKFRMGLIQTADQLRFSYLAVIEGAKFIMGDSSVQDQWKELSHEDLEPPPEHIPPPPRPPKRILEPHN
As to the kind of experiment: pNPP assay for tyrosine phosphatase inhibitory activity. The data set is classed as biochemical. The note with it: Table 1; pNPP substrate 10 mM, 30° C., 10 minutes, absorbance at 405 nm. Here is the method: The compounds provided herein are evaluated for biological activity as inhibitors of PTP-1B using, for example, a pNPP assay. Such an assay can be used to screen compounds for tyrosine phosphatase inhibitory activity as shown in Example 39.
A 5× stock of pNPP (p-nitrophenol phosphate) substrate is prepared as 50 mM pNPP in assay buffer. Various tyrosine phosphatase solutions can be prepared as follows: • PTP-1B (purified, 1 mg/mL) as a 1:250 dilution (to a final concentration of 4:g/mL); • TC-PTP (NEB, 1000 units in 100:L) as a 1:50 dilution (to a final concentration of 2 U/10:L (4:g/mL)); • CD45 (Calbiochem, 20:g, 400 units in 100: L) as a 1 :50 dilution (to a final concentration of 0.8 U/10:L (4:g/mL)); • LAR (NEB, 1000 units in 200:L) as a 1:75 dilution (to a final concentration of 0.7 U/10:L (4:g/mL)); and • PTP-β (UBI, #14-350, 10,000 units, 40:g/571:L) as a 1:17.5 dilution (to a final concentration of 10 U/10:L (4:g/mL));
The compound to be tested is prepared as 1:16.7 and 1:50 dilutions from stock in a total volume of 1 00:M DMSO to give final concentrations of 626 and 200:M. The reaction mixtures are prepared in a 96-well microtiter plate (on ice) as 55:L assay buffer, 5:L of the diluted compound (to a final concentration of 31.3 and 10:M), 20:L of the pNPP substrate solution (to a final concentration of 10 mM) and 20:L PTPase in assay buffer. The reactants are mixed well, the plate placed in a water bath at 30° C. and incubated for 10 minutes. The reaction is then terminated by adding 1 OO:L of 2M K2CO3 per well, and the absorbance is measured at 405 nm by conventional means.
Unless otherwise indicated, this assay was used to determine activity for the selected compounds whose activity is recorded in Table 1 and Table 2.
The compound `COC(=O)c1ccccc1-c1cccc(-c2cnc(N(Cc3ccc(C(F)(F)P(=O)(O)O)c(Br)c3)c3ccc(Cl)c(Cl)c3)o2)c1` [Example 19, 3′-{2-[[3-Bromo-4-(difluoro-phosphono-methyl)-benzyl]-(3,4-dichloro-phenyl)-amino]-oxazol-5-yl}-biphenyl-2-carboxylic acid methyl ester] had an IC50 of 1 to 10 µM.

`COC(=O)C(Oc1cccc(-c2cnc(N(Cc3ccc(C(F)(F)P(=O)(O)O)c(Br)c3)c3ccc(Cl)c(Cl)c3)o2)c1)c1ccccc1` (stereo not drawn) [Example 13, (3-{2-[[3-Bromo-4-(difluoro-phosphono-methyl)-benzyl]-(3,4-dichloro-phenyl)-amino]-oxazol-5-yl}-phenoxy)-phenyl-acetic acid methyl ester]: the IC50 lay in the range of 1 to 10 µM.

On to `O=C(O)c1ccc(Oc2ccc(-c3cnc(N(Cc4ccc(C(F)(F)P(=O)(O)O)c(Br)c4)c4ccc(Cl)c(Cl)c4)o3)cc2)cc1` [Example 12, 4-(4-{2-[[3-Bromo-4-(difluoro-phosphono-methyl)-benzyl]-(3,4-dichloro-phenyl)-amino]-oxazol-5-yl}-phenoxy)-benzoic acid], for which the IC50 is 0.1 to 0.5 µM.

The compound `O=C(O)c1ccc(CN(c2ccc(Cl)c(Cl)c2)c2nnc(-c3cccc(Oc4cccc(C(=O)O)c4)c3)o2)cc1` [Example 21] had an IC50 of 10 to 100 µM.

`CS(=O)(=O)c1ccc(-c2cnc(N(Cc3ccc(C(F)(F)C(=O)O)cc3)c3ccc(Cl)c(Cl)c3)o2)cc1` [[4-({(3,4-Dichloro-phenyl)-[5-(4-methanesulfonyl-phenyl)-oxazol-2-yl]-amino}-methyl)-phenyl]-difluoro-acetic acid] registered a concentration for half-maximal inhibition (IC50) of 10 to 100 µM.

For `O=C(O)c1ccc(CN(Cc2ccc(C(F)(F)P(=O)(O)O)cc2)c2nnc(-c3cccc(Oc4ccccc4)c3)o2)cc1` [4-({[4-(Difluoro-phosphono-methyl)-benzyl]-[5-(3-phenoxy-phenyl)-[1,3,4]oxadiazol-2-yl]-amino}-methyl)-benzoic acid], the IC50 is 1 to 10 µM.

As to `O=C(O)C(Oc1cccc(-c2cnc(N(Cc3ccc(C(F)(F)P(=O)(O)O)c(Br)c3)c3ccc(Cl)c(Cl)c3)o2)c1)c1ccccc1` (stereo not drawn) [Example 16, (3-{2-[[3-Bromo-4-(difluoro-phosphono-methyl)-benzyl]-(3,4-dichloro-phenyl)-amino]-oxazol-5-yl}-phenoxy)-phenyl-acetic acid], the IC50 is less than 0.1 µM.

In turn, `COC(=O)c1ccccc1Oc1cccc(-c2cnc(N(Cc3ccc(C(F)(F)P(=O)(O)O)c(Br)c3)c3ccc(Cl)c(Cl)c3)o2)c1` [Example 14, 2-(3-{2-[[3-Bromo-4-(difluoro-phosphono-methyl)-benzyl]-(3,4-dichloro-phenyl)amino]-oxazol-5-yl}-phenoxy)-benzoic acid methyl ester] registered an IC50 of 1 to 10 µM.

Staying with this data set, now noted: Table 2; pNPP substrate 10 mM, 30° C., 10 minutes, absorbance at 405 nm.
`CS(=O)(=O)c1ccc(-c2cnc(N(Cc3ccc(C(F)(F)P(=O)(O)O)c(Cl)c3)c3ccc(Cl)c(Cl)c3)o2)cc1` [Example 31, {[2-Chloro-4-({(3,4-dichloro-phenyl)-[5-(4-methanesulfonyl-phenyl)-oxazol-2-yl]-amino}-methyl)-phenyl]-difluoro-methyl}-phosphonic acid] came in with an IC50 of 0.1 to 0.5 µM.

With `CC(C)OC(=O)OC(C)OP(=O)(O)C(F)(F)c1ccc(CN(c2ccc(Cl)c(Cl)c2)c2ncc(-c3ccc(S(C)(=O)=O)cc3)o2)cc1Br` (stereo not drawn) [Example 33, {[2-Bromo-4-({(3,4-dichloro-phenyl)-[5-(4-methanesulfonyl-phenyl)-oxazol-2-yl]-amino}-methyl)-phenyl]-difluoro-methyl}-phosphonic acid mono-(1-isopropoxycarbonyloxy-ethyl) ester], the IC50 was in the range of 10 to 100 µM.

`O=C(O)c1ccccc1-c1ccc(-c2cnc(N(Cc3ccc(C(F)(F)P(=O)(O)O)c(Br)c3)c3ccccc3)o2)cc1` [Example 27, 4′-{2-[[3-Bromo-4-(difluoro-phosphono-methyl)-benzyl]-phenyl-amino]-oxazol-5-yl}-biphenyl-2-carboxylic acid] returned an IC50 of 0.1 to 0.5 µM.

Turning to `O=C(O)c1ccccc1-c1ccc(-c2cnc(N(Cc3ccc(C(F)(F)P(=O)(O)O)c(Br)c3)c3ccc(F)cc3)o2)cc1` [Example 28, 4′-{2-[[3-Bromo-4-(difluoro-phosphono-methyl)-benzyl]-(4-fluorophenyl)-amino]-oxazol-5-yl}-biphenyl-2-carboxylic acid], the IC50 lay in the range of 0.1 to 0.5 µM.

In turn, `CCCCCCCCCCCCCCCCOCCCOP(=O)(O)C(F)(F)c1ccc(CN(c2ccc(F)cc2)c2ncc(-c3ccc(S(C)(=O)=O)cc3)o2)cc1Br` [{[2-Bromo-4-({(4-fluoro-phenyl)-[5-(4-methanesulfonyl-phenyl)-oxazol-2-yl]-amino}-methyl)-phenyl]-difluoro-methyl}-phosphonic acid mono-(3-hexadecyloxy-propyl) ester] showed an IC50 of 1 to 10 µM.

As to `CCCCCCCCCCCCCCCCOCCCOP(=O)(O)C(F)(F)c1ccc(CN(c2ccc(Cl)c(Cl)c2)c2ncc(-c3ccc(S(C)(=O)=O)cc3)o2)cc1Br` [{[2-Bromo-4-({(3,4-dichloro-phenyl)-[5-(4-methanesulfonyl-phenyl)-oxazol-2-yl]-amino}-methyl)-phenyl]-difluoro-methyl}-phosphonic acid mono-(3-hexadecyloxy-propyl) ester], the IC50 is 1 to 10 µM.
